Several values for one entry are separate records, joined by “and”; a condition that tells them apart may be missing. Equal values may be shown once. Read-outs that look alike come from different tables or passages of the source.
Tests used:
Bjab BL cell line = experiment: alamarBlue cell viability assay; format: cell-based; conditions: Homo sapiens, 24 h; for viability at 1 µM: read-out: % Viable Cells Remaining Bjab 24 h 1 µM; for viability at 10 µM: read-out: % Viable Cells Remaining Bjab 24 h 10 µM
Description: (§1) Cells were seeded at a density of 2.5 × 10^4 cells/well (MCF-7, MDA-MB-231 cells), 1 × 10^4 cells/well (HL-60 cells), 1–5 × 10^4 cells per well (BL MUTU-I, DG-75 cells) and 2 × 10^5 cells/well [HG-3, PGA-1 (CLL cells)], Ramos, BJAB (BL cells) (200 μL per well), in 96-well plates. Cells were treated with the desired drug concentration for the appropriate time for each cell type, and the samples were incubated as required. alamarBlue (20 μL) was then added to each well and the samples further incubated in the dark at 37 °C for 4 h. Wells containing only reagent and cell culture medium in the absence of cells were used as blank controls. Ethanol was used as a vehicle, and cells were treated with 1% ethanol (v/v) in all experiments. The 96-well plates were analysed on a fluorescence plate reader (SpectraMax Gemini, Molecular Devices) (emission and excitement wavelengths of 590 nm and 544 nm, respectively), and the fluorescence was recorded. The decrease in cell viability was then calculated with reference to the vehicle samples (100% viability). EMEM medium with the addition of alamarBlue was used as a blank. Vehicle-treated cells were considered to be 100% viable, and the viabilities of each compound was calculated accordingly. […] All biochemical assays were performed in triplicate on at least three independent occasions, and the mean values were determined.

Ramos BL cell line = experiment: alamarBlue cell viability assay; format: cell-based; conditions: Homo sapiens, 24 h; for viability at 1 µM: read-out: % Viable Cells Remaining Ramos 24 h 1 µM; for viability at 10 µM: read-out: % Viable Cells Remaining Ramos 24 h 10 µM
Description: as §1

DG-75 BL cells = experiment: Annexin V/PI apoptotic assay (FACS); format: cell-based; conditions: 48 h
Description: (§2) The chemotherapeutic drug taxol was used as a positive control. The pro-apoptotic effects of the selected nitrostyrene compounds 11g, 11h, 11i, 11j, 11k and 11l (10 μM) were determined using FITC (fluorescein isothiocyanate), Annexin V/PI (propidium iodide) staining and FACS (fluorescence-activated cell sorting) analysis to characterise the mode of cellular death induced by the synthesised compounds. Four populations were produced in this assay: Annexin-V- and PI-negative (Q4, healthy cells), Annexin-V-positive and PI-negative (Q3, early apoptosis), Annexin-V- and PI-positive (Q2, late apoptosis) and Annexin-V-negative and PI-positive (Q1, necrosis), which were easily identified and quantified. Apoptosis was assessed as % total apoptosis by a combination of early and late apoptosis (Q3 and Q2, respectively). […] The identification of compounds that can induce apoptosis in cancer cells is required in the development of potential lead structures for anticancer drugs.
(§3) The BL cells DG-75 and MUTU-I (750,000) were treated at 37 °C with either vehicle (0.1% (v/v) EtOH), […] taxol (10 μM) and incubated for 24 h (MUTU-1) or 48 h (DG-75). The CLL cells PGA1 and HG3 (1 × 10^6 cells/mL) were treated at 37 °C with either vehicle (1% (v/v) DMSO) or the nitrostyrene compounds 19a (10 μM, 5 μM and 1 μM) and 19g, 19i, 19l and 19m (10 μM and 1 μM) for 48 h. The cells were then harvested by centrifugation at 400× g in a temperature-controlled Sorvall centrifuge and rinsed with 0.5 mL of Ca^2+ Annexin-V-binding buffer (0.1 M HEPES, pH 7.4; 0.14 M NaCl; 25 mM CaCl2). The samples were resuspended in 50 µL FITC Annexin V (diluted 1:33 in Ca^2+ Annexin V-binding buffer), incubated on ice for 10 min (protected from light), washed with Annexin-V-binding buffer and re-suspended in 500 µL of propidium iodide (PI) solution (0.5 µg/mL). The samples were analysed within 1 h using a BD Accuri C6 flow cytometer counting 10,000 cells and analysed using the FlowJo software (FlowJo LLC, Ashland, OR, USA) package.

MUTU-I BL cells = experiment: Annexin V/PI apoptotic assay (FACS); format: cell-based; conditions: 24 h
Description: as §2, §3

MUTU-1 cells = tested on: MUTU-1 cells; design: method as in earlier work; conditions: nitrostyrenes and taxol, MTT assay, reported data; cited from earlier work
DG-75 cells = tested on: DG-75 cells; design: method as in earlier work; conditions: nitrostyrenes and taxol, MTT assay, reported data; cited from earlier work
[1] = tested on: MUTU-I Burkitt’s lymphoma cell line; conditions: cited from earlier work; for % Viable Cells Remaining MUTU-1 24 h 1 µM / % Viable Cells Remaining MUTU-1 24 h 10 µM: nitrostyrenes
[2] = tested on: DG-75 Burkitt’s lymphoma cell line; conditions: cited from earlier work
[3] = tested on: HeLa cervical cancer cells; experiment: alamarBlue cell viability assay; conditions: Homo sapiens, 24 h; for viability at 1 µM: read-out: % Viable Cells Remaining HeLa 24 h 1 µM; for viability at 10 µM: read-out: % Viable Cells Remaining HeLa 24 h 10 µM
[4] = tested on: MCF-7 human breast cancer cells; experiment: alamarBlue cell viability assay; conditions: MCF7, 72 h; for viability at 1 µM: read-out: % Viable Cells Remaining MCF-7 72 h 1 µM; for viability at 10 µM: read-out: % Viable Cells Remaining MCF-7 72 h 10 µM
[5] = tested on: HL-60 promyelocytic leukaemia cells; experiment: alamarBlue cell viability assay; conditions: Homo sapiens, HL-60, 24 h; for viability at 1 µM: read-out: % Viable Cells Remaining HL60 24 h 1 µM; for viability at 10 µM: read-out: % Viable Cells Remaining HL60 24 h 10 µM
HG-3 CLL cell line = experiment: alamarBlue cell viability assay; conditions: 24 h
PGA-1 CLL cell line = experiment: alamarBlue cell viability assay; conditions: 24 h; for % Viability PGA-1: 10 µM; for viability at 1 µM: read-out: % Viability PGA-1, 1 µM, 24 h
[6] = tested on: DG-75 Burkitt’s lymphoma cell line; conditions: human, 48 h, 1 µM
[7] = tested on: MUTU-I Burkitt’s lymphoma cell line; experiment: alamarBlue cell viability assay; conditions: MUTU-I, 24 h
[8] = tested on: DG-75 Burkitt’s lymphoma cell line; experiment: alamarBlue cell viability assay; conditions: Homo sapiens, DG-75, 48 h
[9] = 10 µM, total (early + late) apoptosis

| Structure (SMILES) | viability at 1 µM (Bjab BL cell line) | viability at 10 µM (Bjab BL cell line) | viability at 1 µM (Ramos BL cell line) | viability at 10 µM (Ramos BL cell line) | DG-75 Apoptosis (%) (DG-75 BL cells; [9]) | MUTU-I Apoptosis (%) (MUTU-I BL cells; [9]) | IC50 (MUTU-1 cells) | IC50 (DG-75 cells) | % Viable Cells Remaining MUTU-1 24 h 1 µM [1] | % Viable Cells Remaining MUTU-1 24 h 10 µM [1] | % Viable Cells Remaining DG-75 48 h 1 µM ([2]; nitrostyrenes, 1 µM, 48 h) | % Viable Cells Remaining DG-75 48 h 10 µM ([2]; nitrostyrenes, 48 h) | viability at 1 µM [3] | viability at 10 µM [3] | viability at 1 µM [4] | viability at 10 µM [4] | viability at 1 µM [5] | viability at 10 µM [5] | % Viability PGA-1 (PGA-1 CLL cell line) | viability at 1 µM (PGA-1 CLL cell line; CLL cell) | other results |
| --- | --- | --- | --- | --- | --- | --- | --- | --- | --- | --- | --- | --- | --- | --- | --- | --- | --- | --- | --- | --- | --- |
| C/C(=C\c1ccccc1Cl)[N+](=O)[O-] [Compound 11g] | 82.2% | 51.9% | 53.4% | 7.7% | 70.6% | 80.9% | 820 nM | 2750 nM | 44.16% | 14.91% | 75.86% | −0.08% | 87.1% | 34.2% | 81.4% | 41.7% | 73.4% | 16.5% | – | – | – |
| C/C(=C\c1ccc(Cl)cc1)[N+](=O)[O-] [Compound 11i] | 100% | 50.8% | 62.6% | 13.9% | 86.4% | 84.5% | 1300 nM | 2750 nM | 67.22% | 10.53% | 88.76% | 0.72% | 93% | 17.7% | 103% | 37.1% | 104% | 6.5% | – | – | – |
| CC/C(=C\c1ccccc1Cl)[N+](=O)[O-] [Compound 11j, (E)-1-Chloro-2-(2-nitrobut-1-en-1-yl)benzene] | 102% | 68.9% | 66.9% | 4.4% | 72.3% | 88.3% | 2180 nM | 2050 nM | 64.31% | 10.3% and 10.27% | 79.77% | 15.89% | 95.3% | 21.8% | 98.1% | 20.7% | 99.8% | 9.1% | 0.53% | 6.31% | viability at 10 µM (HG-3 CLL cell line; CLL cell, read-out: % Viability HG-3, 10 µM, 24 h): 5.61%; viability at 10 µM (PGA-1 CLL cell line; CLL cell, read-out: % Viability PGA-1, 10 µM, 24 h): 0.43% |
| CC/C(=C\c1cccc(Cl)c1)[N+](=O)[O-] [Compound 11k] | – | – | – | – | 90.7% | 91.5% | 1220 nM | 2360 nM | – | 2.39% | – | – | – | – | – | – | – | – | 4.34% | 3.26% | % Viability HG-3 (HG-3 CLL cell line; 10 µM): 0.11%; viability at 1 µM (HG-3 CLL cell line; CLL cell, read-out: % Viability HG-3, 1 µM, 24 h): 60.7% |
| CC/C(=C\c1ccc(Cl)cc1)[N+](=O)[O-] [Compound 11l] | – | – | – | – | 85.0% | 91.3% | 1180 nM | 3110 nM | – | 2.61% | – | – | – | – | – | – | – | – | – | – | – |
| CC(=O)O[C@H]1C(=O)[C@@]2(C)[C@H]([C@H](OC(=O)c3ccccc3)[C@]3(O)C[C@H](OC(=O)[C@H](O)[C@@H](NC(=O)c4ccccc4)c4ccccc4)C(C)=C1C3(C)C)[C@]1(OC(C)=O)CO[C@@H]1C[C@@H]2O [Taxol, taxol, reference compound] | 97.6% | 80.2% | 69.3% | 24.9% | 72.8% | 87.3% | 300 nM | 1320 nM | – | – | – | – | 86.9% | 48.4% | 101% | 75% | 97.6% | 69.7% | – | – | DG-75 Apoptosis (%) (DG-75 BL cells; 1 µM): 20.7%; MUTU-I Apoptosis (%) (MUTU-I BL cells; 1 µM): 62.8%; MUTU-I Apoptosis (%) (MUTU-I BL cells; 10 µM, total (early + late) apoptosis, listed as taxol): 87%; % Viable Cells Remaining DG-75 [6]: 90.0%; IC50 ([1]; read-out: IC50 MUTU-I, previous work): 320 nM; % Viable Cells Remaining DG-75 48 h 1 µM [2]: >90%; IC50 ([2]; read-out: IC50 DG-75, previous work): 1320 nM; viability at 1 µM ([7]; read-out: % Viable Cells Remaining MUTU-1, 1 µM, 24 h): 32%; viability at 10 µM ([7]; read-out: % Viable Cells Remaining MUTU-1, 10 µM, 24 h): 7%; viability at 1 µM ([8]; read-out: % Viable Cells Remaining DG-75, 1 µM, 48 h): > 90%; viability at 10 µM ([8]; read-out: % Viable Cells Remaining DG-75, 10 µM, 48 h): 40% |
